In patent US20210128654A1, “COMPOSITION FOR TREATING, PREVENTING, OR IMPROVING MALE INFERTILITY” (Mugen General Incorporated Association, priority 2018, published 2021):

Assays:
Assay type in all cases: in vivo
[1] = test system: male testis-specific non-mitochondrial GPx4 knockout mouse; assay: Testis tissue observation (hematoxylin eosin), removal of spermatocytes; conditions: "VE high-content feed": vitamin E 100 mg + CE-2 feed 100 g; FIG. 6
Description: (§1) A single 3 weeks-old male testis-specific non-mitochondrial GPx4 knockout mouse was assigned to each of the four groups shown in Table 2 (below) and separately raised (singly per cage) up to 8 weeks-old. To a normal control group, mouse breeding feed CE-2 (CLEA Rodent Diet CE-2; a product manufactured by CLEA Japan, Inc.) was fed during the test period. As a positive control substance, vitamin E (Non Patent Literature 1), which is used in treatment for male infertility, was selected and a mixture of feed CE-2 and vitamin E was fed to a positive control substance administration group during the test period. The ratio of vitamin E in the mixture was 100 mg relative to 100 g of feed CE-2. To the test groups, a mixture of feed CE-2 and koji mold fermentation product obtained in Example 1 was fed during the test period. For a low dose group, a feed having a content of koji mold fermentation product of 0.5 wt % was used. For a high dose group, a feed having a content of koji mold fermentation product of 5.0 wt % was used. Feed CE-2 and feed CE-2 mixed with the positive control substance or a koji mold fermentation product were free to take and water was free to drink from a water-supply bottle. In the aforementioned conditions, mice were raised from 3 weeks-old to 8 weeks-old. […]

[2] = test system: male testis-specific non-mitochondrial GPx4 knockout mouse; assay: Mating test of male infertility model mouse (number of pregnancies and child mice); conditions: "VE high-content feed": vitamin E 100 mg + CE-2 feed 100 g, mating period 3 months
Description: In this Example, as a male infertility model mouse, a male testis-specific non-mitochondrial GPx4 knockout mouse was used (see, Non Patent Literature 2). The testis-specific non-mitochondrial GPx4 knockout mouse is a mouse deficient in non-mitochondrial phospholipid hydroperoxide glutathione peroxidase (cGPx4) in the testis and has the phenotypes listed in the following Table 1.
A single 3 weeks-old male testis-specific non-mitochondrial GPx4 knockout mouse was assigned to each of the four groups shown in Table 2 (below) and separately raised (singly per cage) up to 8 weeks-old. To a normal control group, mouse breeding feed CE-2 (CLEA Rodent Diet CE-2; a product manufactured by CLEA Japan, Inc.) was fed during the test period. As a positive control substance, vitamin E (Non Patent Literature 1), which is used in treatment for male infertility, was selected and a mixture of feed CE-2 and vitamin E was fed to a positive control substance administration group during the test period. The ratio of vitamin E in the mixture was 100 mg relative to 100 g of feed CE-2. To the test groups, a mixture of feed CE-2 and koji mold fermentation product obtained in Example 1 was fed during the test period. For a low dose group, a feed having a content of koji mold fermentation product of 0.5 wt % was used. For a high dose group, a feed having a content of koji mold fermentation product of 5.0 wt % was used. Feed CE-2 and feed CE-2 mixed with the positive control substance or a koji mold fermentation product were free to take and water was free to drink from a water-supply bottle. In the aforementioned conditions, mice were raised from 3 weeks-old to 8 weeks-old.
When male testis-specific non-mitochondrial GPx4 knockout mice grew up to be crossable (8 weeks-old) mice, three of 7 weeks-old BALB/c female mice were assigned to each cage and crossed with a single male testis-specific non-mitochondrial GPx4 knockout mouse. The mating period was 3 months. […]

[3] = test system: male testis-specific non-mitochondrial GPx4 knockout mouse; assay: Abnormal sperm ratio and sperm-tail fold angle by microscopy; conditions: "VE high-content feed": vitamin E 100 mg + CE-2 feed 100 g; FIG. 4
Description: as §1, with “used.” for “used. For a high dose group, a feed having a content of koji mold fermentation product of 5.0 wt % was used. Feed CE-2 and feed CE-2 mixed with the positive control substance or a koji mold fermentation product were free to take and water was free to drink from a water-supply bottle. In the aforementioned conditions, mice were raised from 3 weeks-old to 8 weeks-old.”
In a testis-specific non-mitochondrial GPx4 knockout mouse, a half or more of the sperms have an abnormal structure (a sperm tail is folded to form a hair-pin structure); in other words, abnormal sperm morphology. […] The sperms in a plurality of fields of view under the microscope were photographed, and the numbers of normal sperms and abnormal sperms in the photographs were counted, and then, an average ratio of abnormal sperms was calculated.

In the case of vitamin E, the “removal of the spermatocytes in testis tissue” value [1] was “improved”, the “total number of child mice” value ([2]; 3 females, FIG. 2b) was 60 and the “number of child mice per delivery of the female mice” value ([2]; FIG. 2c) was 7. The “total number of pregnancies of three female mice” value ([2]; single male x 3 BALB/c females, FIG. 2a) was 8 and the “significantly low ratio of abnormal sperms” value [3] was “not observed”.
